Data reported in patent publication US20060025394A1, “Estradiol-related compounds and methods of use as anti-tumor agents” (priority 2003, published 2006).
Entries after “also recorded” stand apart in the source; their conditions may differ.

Experiments:
MCF-7 [1] = test: MTS cell viability assay in MCF-7; assay type: cell-based; conditions: MCF-7, data not shown
Protocol: (§1) DU145, LNCaP, PC3, and MCF-7 cells were obtained from the American Type Culture Collection (Manassas, Va.). DU145, PC3, and MCF-7 cells were maintained in Dulbecco's modified Eagle's medium/F-12 supplemented with 5% heat inactivated Fetal Calf Serum and Penicillin/Streptomycin (Invitrogen Life Technologies, Carlsbad, Calif.). LNCaP cells were maintained in RPMI 1640 medium supplemented in the same fashion. Cells were cultured in 75 cm^2 flasks (Falcon, BD Biosciences, Bedford, Mass.) at 37° C. and 5% CO2. […]
(§2) Cell viability assays were carried out with five logs of concentration between 0.1 nM and […] for APVE2, including controls in three prostate cancer cell lines (DU145, LNCaP, and PC3, and in a breast cancer cell line (MCF-7). Upon completing five days of treatment, the medium in each well was exchanged for 400 μL of an MTS solution (3-(4,5-dimethylthiazol-2-yl)-5-(3-carboxymethoxyphenyl)-2-(4-sulfophenyl)-2H-tetrazolium, inner salt; O'Toole SA, 2003, Cancer Detect Prev., 2003;27(1):47-54) spiked into media as per the manufacture's instructions (Promega, Madison, Wis.) and incubated for 2 hours at 37° C. before reading the absorbance on the μQuant UV/VIS plate reader, in conjunction with KCjunior Software (Bio-Tek Instruments, Winooski, Vt.) set at 490 nm. […] EC50 values were calculated with GraphPad Prism software (GraphPad Software Inc., San Diego, Calif.).

NCR nude mice = conditions: 5 to 40 mg/kg/day bolus IM injection, 40-day period
Protocol: Doses included 5 to 40 mg/kg/day bolus IM injection. Toxicity effects were gauged based on changes in animal weight and gross analysis of specific organs including liver, lung, prostate, brain, spleen, heart, and kidney, collected, and fixed in paraffin sections.

LNCaP = test: MTS cell viability assay in LNCaP; assay type: cell-based
Protocol: as §1, §2

DU145 cells [2] = test: ER competition study, MTS assay with E2 as the competitor; conditions: DU145, co- or 1 hour pre-treatment with 1 μM E2
[3] = system: DU145, PC3, and LNCaP cell lines; test: MTS assay, values averaged or stated over the CaP cell lines; assay type: cell-based; conditions: apoptotic mechanism
Protocol: DU145, LNCaP, PC3, and MCF-7 cells were obtained from the American Type Culture Collection (Manassas, Va.). DU145, PC3, and MCF-7 cells were maintained in Dulbecco's modified Eagle's medium/F-12 supplemented with 5% heat inactivated Fetal Calf Serum and Penicillin/Streptomycin (Invitrogen Life Technologies, Carlsbad, Calif.). LNCaP cells were maintained in RPMI 1640 medium supplemented in the same fashion. Cells were cultured in 75 cm^2 flasks (Falcon, BD Biosciences, Bedford, Mass.) at 37° C. and 5% CO2. For the MTS assay (Example 3), five thousand cells were plated in each well of a 24 well plate (Falcon), were allowed to attach for a 48-hour period in the media described, and changed to a defined medium, (DMEM/F-12 or RPMI1640) supplemented with insulin (BD Biosciences). A 1000× solution of the compound of interest solubilized in DMSO (Sigma, Saint Louis, Mo.) was diluted in the defined media just prior to starting each experiment, and media was refreshed every 48 to 72 hours throughout the experiments.
. Upon completing five days of treatment, the medium in each well was exchanged for 400 μL of an MTS solution (3-(4,5-dimethylthiazol-2-yl)-5-(3-carboxymethoxyphenyl)-2-(4-sulfophenyl)-2H-tetrazolium, inner salt; O'Toole SA, 2003, Cancer Detect Prev., 2003;27(1):47-54) spiked into media as per the manufacture's instructions (Promega, Madison, Wis.) and incubated for 2 hours at 37° C. before reading the absorbance on the μQuant UV/VIS plate reader, in conjunction with KCjunior Software (Bio-Tek Instruments, Winooski, Vt.) set at 490 nm. All experiments were carried out in quadruplicate, control wells were treated with the carrier DMSO. E2, which is estradiol-17β (Steraloids®, Newport, R.I.) and resveratrol (Sigma) were used as controls. […]

MCF-7 [4] = test: Cytotoxicity testing (Example 7), MTS, MCF-7; assay type: cell-based; conditions: Table 3, five days, 1 mM of each compound, defined media
Protocol: Cytotoxicity Studies were done in DU-145 and MCF-7 Cells. […] We set out to test the efficacy of these compounds based on known affinities for ER-α previously reported. Cells were treated for five days with 1 mM of each compound in a defined media. Cell number was estimated by the MTS method. Similar studies were carried out in the MCF-7 cell line known to express both ER-α and -β, and display proliferative properties in the presence of classic estrogens.

DU145 cells [5] = test: Annexin-V-FITC/PI apoptosis assay; assay type: cell-based; conditions: 16 nM, 4th and 5th days
Protocol: Apoptosis was assessed with the annexin-V-FITC apoptosis detection kit (Oncogene Research Products, Boston, Mass.) as per the manufacturer's instructions with E2 and camptothecin (Calbiochem, San Diego, Calif.) as negative and positive controls respectively. Briefly, cells were lifted at the appropriate time points as described above and pelleted. Cells were then resuspended in ice cold binding buffer, and doubly stained with Annexin-V-fluorescein isothiocyanate and propidium iodide (PI) and analyzed within two hours on the FACScan™ flow cytometer (Becton Dickinson) and the Cell Cycle Multi-Cycle system (Phoenix Flow System).

DU145 cells [6] = test: Flow cytometry cell cycle analysis; assay type: cell-based; conditions: 16 nM
Protocol: The cells were trypsinized for five minutes, scraped, washed in serum containing media, centrifuged at 300 rpm for 10 minutes, and fixed in ice-cold 70% ethanol for 24 hours at −20° C. The cells were again pelleted and resuspended in buffer containing nine parts 0.05M Na2HPO4 and one part 25 mM citric acid with 0.1% Triton X-100 (pH 7.8) for 2 hours. Cells were pelleted, resuspended in a buffer ([…], 0.1 N NaCl, 2 mM MgCl2, and 0.1% Triton X-100) containing 20 μg PI and 50 μg/ml RNAse (pH 6.8), and incubated in the dark at room temperature for 30 minutes. Cell cycle distribution and DNA content analysis were assayed according to standard methods with a FACS sorter, FACScan™ flow cytometer (Becton Dickinson, Mountain View, Calif.), and analyzed by the Cell Cycle Multi-Cycle system (Phoenix Flow System, San Diego, Calif.). Approximately 15,000 single events were collected, and cell-cycle distribution was determined using Modfit LT version 2 software (Verity House, Inc., Topsham, Me.). All analyses were carried out in quadruplicate.

ER-β = biological target: T1, ER-β (Homo sapiens, UniProt Q92731); test: Estrogen receptor relative binding affinity assay, fluorescence polarization, ER-β
T1 construct: purchased Pan Vera, Madison, Wis
T1 sequence (Q92731 whole entry): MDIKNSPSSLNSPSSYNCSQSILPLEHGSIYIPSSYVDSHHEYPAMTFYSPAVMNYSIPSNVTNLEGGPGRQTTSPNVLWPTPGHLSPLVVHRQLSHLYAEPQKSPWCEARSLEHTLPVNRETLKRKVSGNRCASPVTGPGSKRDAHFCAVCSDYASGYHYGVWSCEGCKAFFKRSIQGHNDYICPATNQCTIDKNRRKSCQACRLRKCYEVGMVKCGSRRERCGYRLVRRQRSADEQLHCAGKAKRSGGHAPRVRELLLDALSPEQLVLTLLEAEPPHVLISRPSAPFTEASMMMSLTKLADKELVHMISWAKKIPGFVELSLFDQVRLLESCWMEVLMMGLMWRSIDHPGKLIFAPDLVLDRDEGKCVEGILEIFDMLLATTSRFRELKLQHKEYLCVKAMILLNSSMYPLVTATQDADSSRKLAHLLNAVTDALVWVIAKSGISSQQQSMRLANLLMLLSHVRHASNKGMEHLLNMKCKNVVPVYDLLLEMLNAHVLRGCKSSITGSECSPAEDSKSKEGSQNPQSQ
Protocol: All assays were carried out as per the manufacture's instructions with the following modifications.

C[C@]12CC[C@@H]3c4ccc(O)cc4CC[C@H]3[C@@H]1CC[C@@]2(O)/C=C\c1ccc(N)cc1 [APVE2, 17α-20Z-21-[(4-amino)phenyl]-19-norpregna-1,3,5(10),20-tetraene-3,17β-diol]
cell death (MCF-7 [1]): did induce cell death
proliferation / growth response (MCF-7 [1]): no growth response; also recorded: did not cause an increase in proliferation
general toxicity (animal weight, gross analysis of organs) (NCR nude mice): No apparent detrimental effects
decrease in cell number (LNCaP; 5 days of treatment at 1 μM): 69±2.3%
EC50 (LNCaP; Homo sapiens, 120 h, five day treatment, read-out: EC50 (cell death, MTS)): 1.4 nM
reversal of cytotoxicity of 16 nM APVE2 by E2 (DU145 cells [2]): not effected; also recorded: not reversed
level of cell death [3]: > 90%
MCF-7 % Cell# (MCF-7 [4]): 25%
cells staining heavily with both dyes (late stage apoptosis) (DU145 cells [5]): approximately 76%
increase in G2/M accumulation (DU145 cells [6]): over 4 fold
G1/G0 phase, compared to non-treated controls (DU145 cells [6]; day 2-3): 135%
G2/M, compared to non-treated controls (DU145 cells [6]; day 3): no change
S phase, decrease to, compared to non-treated controls (DU145 cells [6]; day 3): 32%
G1/G0, decrease to, over non-treated controls (DU145 cells [6]; day 4): 48%
S phase, over non-treated controls (DU145 cells [6]; day 4): 73%
G2/M arrest, over non-treated controls (DU145 cells [6]; day 4-5): 420%
loss of G1 (DU145 cells [6]; four to five days): over 48%
loss in S phase (DU145 cells [6]; second and third day): up to 68%
preference for ER-β over ER-α (ER-β): 7 fold
EC50 (ER-β; fluorescence polarization, 25° C., 2 hours): 250 nM
ER-β % RBA (ER-β; ratio of EC50 values as compared to E2): 6.2%
ER-α/ER-β (ER-β; ratio of RBAs): 0.14
